“And” between values parts separate entries of the source, which are not always exact repeats. Equal entries are not always repeated. Blank lines part the entries; values can stand above or below the molecule they belong to.
Legend:
[1] = target: T1, GPR174 (Homo sapiens, UniProt Q9BXC1); assay: Human GPR174 CRE activity / Gs signaling; format: cell-based
Procedure: (§1) Where present, multiple EC50 values correspond to values obtained in separate experiments. […] The activity of the compounds was tested as described in US 20200276190, the disclosure of which is incorporated herein by reference.

[2] = target: T1, GPR174; assay: CRA (EC50) of GPR174 inhibitor compounds, tested as described in US 20200276190; format: cell-based; conditions: multiple values = separate experiments
Procedure: as §1

[3] = tested on: human CD8 T cells; assay: Example 5: T cell number increase during 10-day expansion; format: cell-based; conditions: for fold-increase in T cell number during the 10-day expansion (FIG. 7): vehicle and media controls approximately 50-fold
Procedure: (§2) DMSO vehicle control • 2. […] 500 μM Rp-8-Br-cAMPS • 4. […] 0.5 μM doramapimod • 6. Media control
(§3) or the following individual conditions for the experiment shown in FIG. 8, each ±0.5 μM doramapimod: • 1. DMSO vehicle control • 2. 500 μM Rp-8-Br-cAMPS • 3. […] 5 μM ESI-09
(§4) On days 3, 5, and 7, cultures were washed and seeded at 0.5 cells million per well with the same small molecule inhibitor conditions, and with IL-7 and IL-15. On day 10, cells were washed twice (12 mL media each), and restimulated in quadruplicate in 96-well round-bottom plates with the following conditions: • 0.1 mL X-VIVO™ 15 media (Lonza) • 0.05 million cells from each condition • 0.1 million Human T-Activator CD3/CD28 Dynabeads® (ThermoFisher)

[4] = tested on: OT-I TCR transgenic CD8 T cells; assay: Example 8: OT-I CD8 T cell 9-day expansion with PKA, p38, PI3Kδ inhibitors, IL-2 after restimulation with EG7 cells; format: cell-based, mouse
Procedure: DMSO vehicle control • 2. 0.5 μM doramapimod • 3. 500 μM Rp-8-Br-cAMPS • 4. 0.5 μM doramapimod+500 μM Rp-8-Br-cAMPS • 5. 1 μM idelalisib • 6. 1 μM idelalisib+0.5 μM doramapimod • 7. 1 μM idelalisib+500 μM Rp-8-Br-cAMPS • 8. 1 μM idelalisib+0.5 μM doramapimod+500 μM Rp-8-Br-cAMPS
On days 2, 4, 6, and 8, cells were counted, washed and reseeded at 0.5 million per well in 2 mL media with the same 8 conditions and with recombinant mouse IL-2 and IL-7 (5 ng/mL each). […] Cells were also washed three times (12 mL media each), and restimulated in quintuplicate in 96-well round-bottom plates with the following conditions: • 0.1 mL RP10 media • 0.05 million OT-I T cells from each condition • 0.05 million EG7 cells
(§5) After overnight culture, supernatants were harvested and analyzed for IL-2 content (MesoScale Discovery).

[5] = tested on: EG7 tumors; assay: Example 7: adoptive transfer of inhibitor-precultured OT-1 T cells into EG7 tumor-bearing mice; format: in vivo, mouse; conditions: for tumor growth / tumor volume after transfer of precultured OT-1 T cells: 2 million OT-1 T cells expanded 10 days with 0.2 μM doramapimod and/or 500 μM Rp-8-Br-cAMPS, retro-orbital, relative to vehicle control cells; for survival of tumor-bearing mice: OT-1 T cells precultured with inhibitor(s), relative to vehicle group
Procedure: (§6) and the following individual conditions: • 1. DMSO vehicle control • 2. 0.2 μM doramapimod • 3. 500 μM Rp-8-Br-cAMPS • 4. 0.2 μM doramapimod+500 μM Rp-8-Br-cAMPS
On day 6 cells were seeded in 6-well plates with […] per well, and on day 8 cells were seeded in T75 flasks in 30 mL media to obtain enough cells to transfer into EG7 tumor-bearing mice.
C57BL/6 female mice were implanted with 6 million EG7 tumor cells subcutaneously on day 4 of the OT-1 T cell expansion. On day 6 of tumor growth (day 10 of OT-1 T cell expansion) OT-1 T cells were washed and injected retro-orbitally into tumor bearing mice that had been sorted into 4 groups with equal tumor volume distributions (n=8). Via retroorbital injection, mice received 2 million OT1 T cells of each of the 4 culture conditions. Tumor volume (mm^3) was calculated as 0.5×(length×width^2), where length represents the largest tumor diameter and width represents the perpendicular tumor diameter. Mice were euthanized when the sum of the two measurements exceeded 30 mm.

[6] = tested on: OT-I TCR transgenic CD8 T cells; assay: Example 6: OT-I CD8 T cell expansion with PKA and p38 inhibitors, IL-2 after restimulation with EG7 cells; format: cell-based, mouse; conditions: 0.2 μM doramapimod, 500 μM Rp-8-Br-cAMPS; for IL-2 production from 8-day OT-I cultures, fold vs vehicle control: day 8 restimulation with EG7 cells; for IL-2 production from 10-day OT-I cultures, fold over vehicle control: day 10 restimulation with EG7 cells
Procedure: as §6
On day 8, cells were immunophenotyped with the following antibodies: anti-CD8 BV570, anti-CD62L eFluor450, anti-TCF1/TCF7 PE, anti-CD39 PerCP-eFluor710, anti-CD69 BV605, anti-PD-1 BV711, anti-CTLA-4 APC, and LIVE/DEAD™ Fixable Green Dead Cell Stain.
as §5

[7] = tested on: OT-I TCR transgenic CD8 T cells; assay: Example 6: immunophenotyping of OT-I T cells on day 8; format: cell-based, mouse; conditions: 8 days of culture; for percentage of OT-I T cells expressing both CD39 and CD69: vehicle 22%
Procedure: as §6
On days 2, 4, 6, and 8, cells were counted, washed, and reseeded at 0.5 million per well in 2 mL media with the same 4 doramapimod/Rp-8-Br-cAMPS conditions and with recombinant mouse IL-2 and IL-7 (5 ng/mL each). On day 8, cells were immunophenotyped with the following antibodies: anti-CD8 BV570, anti-CD62L eFluor450, anti-TCF1/TCF7 PE, anti-CD39 PerCP-eFluor710, anti-CD69 BV605, anti-PD-1 BV711, anti-CTLA-4 APC, and LIVE/DEAD™ Fixable Green Dead Cell Stain.

[8] = tested on: human CD8 T cells; assay: Example 5: human CD8 T cell expansion with cAMP pathway and p38 inhibitors, IL-2 after restimulation; format: cell-based; conditions: 500 μM Rp-8-Br-cAMPS, 0.5 μM doramapimod; for IL-2 production following restimulation, fold above vehicle control (FIG. 8): 10 μM HJC-0197, 5 μM ESI-09; for IL-2 production following restimulation, fold vs vehicle (FIG. 7): GPR174+A2A inhibitors, overnight restimulation
Procedure: as §2, §3, §4, §5

[9] = tested on: human CD8 T cells; assay: Example 4: human CD8 T cell expansion with GPR174, A2A, PKA or EPAC inhibitors, IL-2 after restimulation; format: cell-based; conditions: 300 nM Compound #10, 100 nM ZM-241385, 500 μM Rp-8-Br-cAMPS, 5 μM ESI-09; 5.5 hours restimulation
Procedure: Purified human CD8 T cells were cultured in 24-well plates with the following conditions per well: • 2 mL X-VIVO™ 15 media (Lonza) • 0.4 million human CD8 T cells (Donor A) • 2 million Human T-Activator CD3/CD28 Dynabeads® (ThermoFisher) • 10 ng/mL human IL-7 (R&D Systems) • 10 ng/mL human IL-15 (R&D Systems)
and the following individual conditions, ±300 nM Compound #10: • 1. DMSO vehicle control • 2. […] 500 μM Rp-8-Br-cAMPS • 4. 5 μM ESI-09
On days 3, 5, and 7, cultures were washed and seeded at 0.5 cells million per well with the same small molecule inhibitor conditions, and with IL-7 and IL-15.
After 5.5 hours of culture, supernatants were harvested and analyzed for IL-2 content (MesoScale Discovery).

[10] = Idelalisib (agent together with 1 μM idelalisib)
[11] = column Vehicle (without idelalisib), 0.5 μM doramapimod, 500 μM Rp-8-Br-cAMPS

T1 sequence (Q9BXC1 whole entry): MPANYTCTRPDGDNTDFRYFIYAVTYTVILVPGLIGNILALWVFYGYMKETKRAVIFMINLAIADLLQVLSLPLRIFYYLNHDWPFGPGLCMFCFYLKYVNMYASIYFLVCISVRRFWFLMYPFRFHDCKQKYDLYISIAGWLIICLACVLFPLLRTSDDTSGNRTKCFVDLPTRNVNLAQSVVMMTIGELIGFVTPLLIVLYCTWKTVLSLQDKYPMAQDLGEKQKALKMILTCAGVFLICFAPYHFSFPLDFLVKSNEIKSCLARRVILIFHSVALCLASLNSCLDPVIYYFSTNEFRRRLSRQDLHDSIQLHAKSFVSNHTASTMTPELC

Human GPR174 CRE Activity (type of modulation) [1]: NM (“NM” refers to “non-modulator.”)
Compound: S=C(NCc1ccco1)Nc1ccc(I)cc1 [Compound 59]

EC50 [2]: 2.9 µM
Compound: CCOc1ccc(C2C3=C(CCCC3=O)NC3=C2C(=O)c2ccccc23)cc1 (stereo not drawn) [Compound 23]

Compound: Cc1ccc(-n2nc(C(C)(C)C)cc2NC(=O)Nc2ccc(OCCN3CCOCC3)c3ccccc23)cc1 [doramapimod]
T cell growth during the 10-day culture relative to vehicle-treated cells (FIG. 8) [3]: very little effect on cell growth
fold-increase in T cell number during the 10-day expansion (FIG. 7) [3]: approximately 50 fold
Fold-change in IL-2 production relative to Vehicle control [4, 10]: 65.0
Fold-change in IL-2 production relative to Vehicle control [4, 11]: 2.2
tumor growth / tumor volume after transfer of precultured OT-1 T cells [5]: significantly halted and delayed tumor growth
survival of tumor-bearing mice [5]: intermediate survival times
IL-2 production from 8-day OT-I cultures, fold vs vehicle control [6]: 4.9 fold
IL-2 production from 10-day OT-I cultures, fold over vehicle control [6]: 6.8 fold
increase in cells expressing both CD62L and TCF1/TCF7 relative to vehicle control [7]: smaller increases
percentage of OT-I T cells expressing both CD39 and CD69 [7]: smaller reductions
IL-2 production following restimulation, fold above vehicle control (FIG. 8) [8]: 1.8 fold
IL-2 production following restimulation, fold vs vehicle (FIG. 7) [8]: 3.2 fold

Human GPR174 CRE Activity (type of modulation) [1]: Antagonist or allosteric modulator
Compound: Cc1cc(C(=O)N/N=C/c2cc(Br)ccc2O)c(C)o1 [Compound 58]

Human GPR174 CRE Activity (type of modulation) [1]: Antagonist or allosteric modulator
EC50 [2]: 5 µM
Compound: Cc1ccccc1Nc1nnc(-c2ccc(C)c(S(N)(=O)=O)c2)c2ccccc12 [Compound 20]

EC50 [2]: 1.5 µM and 0.9 µM
Compound: CCOC(=O)N1CCN(c2cc(N3CCC(C)CC3)c(F)cc2[N+](=O)[O-])CC1 [Compound 1]

Compound: CC(C)(C)c1cc(C(=O)/C(C#N)=N/Nc2cccc(Cl)c2)no1 [ESI-09]
IL-2 production following restimulation, fold increase vs vehicle (FIG. 6) [9]: no impact on IL-2 production
T cell growth during the 10-day culture relative to vehicle-treated cells (FIG. 8) [3]: attenuated T cell expansion
IL-2 production following restimulation, fold above vehicle control (FIG. 8) [8]: absent or negligible

Compound: Nc1ncnc2c1nc(Br)n2[C@@H]1O[C@@H]2COP([O-])(=S)O[C@H]2[C@H]1O.[Na+] (single isomer, unassigned) [Rp-8-Br-cAMPS, 8-Br-cAMPS, Rp-isomer]
IL-2 production following restimulation, fold increase vs vehicle (FIG. 6) [9]: 3.7 fold
T cell growth during the 10-day culture relative to vehicle-treated cells (FIG. 8) [3]: ~2 fold
fold-increase in T cell number during the 10-day expansion (FIG. 7) [3]: 170 fold
Fold-change in IL-2 production relative to Vehicle control [4, 10]: 89.9
Fold-change in IL-2 production relative to Vehicle control [4, 11]: 1.6
tumor growth / tumor volume after transfer of precultured OT-1 T cells [5]: significantly halted and delayed tumor growth
survival of tumor-bearing mice [5]: intermediate survival times
IL-2 production from 8-day OT-I cultures, fold vs vehicle control [6]: 5.3 fold
IL-2 production from 10-day OT-I cultures, fold over vehicle control [6]: 18 fold
downregulation of CTLA-4 [7]: particularly effective at downregulating CTLA-4
increase in cells expressing both CD62L and TCF1/TCF7 relative to vehicle control [7]: smaller increases
percentage of OT-I T cells expressing both CD39 and CD69 [7]: smaller reductions
IL-2 production following restimulation, fold above vehicle control (FIG. 8) [8]: 2 fold
IL-2 production following restimulation, fold vs vehicle (FIG. 7) [8]: 3.6 fold

EC50 [2]: 3.3 µM and 3 µM and 5.1 µM
Compound: CC(=O)N1CCN(c2cc(N3CCCCC3)c(F)cc2[N+](=O)[O-])CC1 [Compound 2]
